Experiment [1] concerns C. difficile. The experiment is described as follows: Antibacterial activity against Clostridium difficile, agar medium dilution MIC (CLSI). In kind it is cell-based. The note with it: Clostridioides difficile.
Experiment [2] has as its system M. tuberculosis. Description: Antibacterial activity against tuberculosis bacteria, resazurin (REMA) MIC50. The note with it: Mycobacterium tuberculosis, read-out: MIC50. In kind it is cell-based. (The colour change of resazurin is a common sign of viable cells or microbes.)
The test system of experiment [3] is Mycobacterium avium ATCC 700898. Description: Antibacterial activity against nontuberculous mycobacteria, resazurin MIC50. The class given is cell-based. The note with it: ATCC700898.
The test system of experiment [4] is Mycobacterium intracellulare ATCC 13950. The experiment is described as above. The class given is cell-based. Conditions: ATCC13950.
Experiment [5] deals with Mycobacterium abscessus ATCC 19977. The description is as above. The class given is cell-based. Conditions: Mycobacteroides abscessus, ATCC19977.
Experiment [6] has as its system C. difficile Ribotype 027. Description: Efficacy in Clostridium difficile-infected mouse model (survival). Conditions: C57BL/6J mouse, 30 mg/kg orally once a day for 5 days. In kind it is in vivo.
For experiment [7], the system named is IL-6. Description: Anti-inflammatory efficacy: IL-6 secretion in LPS-treated RAW 264.7 cells (ELISA). In kind it is cell-based, mouse. The note with it: RAW 264.7 cells, 5, 10, 20, 40 ug/mL plus 1 ug/ml LPS, 24 hours, versus LPS only. As for the experimental part: (§1) In order to confirm the anti-inflammatory effect of the micrococcin compound (Compound 13; Micrococcin P2) prepared in Example 1 of the present invention, an inflammatory cytokine secretion amount was measured.
(§2) RAW 264.7 cells which are mouse-derived macrophage cell lines were distributed from Korean Cell Line Bank (KCLB), and a DMEM (Dulbeccon's modified Eagle's medium; PAA, Austria) medium including 1% Penicillin-Streptomycin and 10% FBS (fetal bovine serum; Gibco Laboratories) was used. Cells were cultured under the conditions of 37° C. and 5% CO2.
(§3) The cultured RAW 264.7 cells were dispensed at 2x10^5 cells/well in a 24-well plate, the micrococcin compound (Compound 13; Micrococcin P2) prepared in Example 1 was treated by concentrations (5, 10, 20, 40 ug/mL) and then treated 1 ug/ml of lipopolysaccharide (LPS), and culture was performed in an incubator (5% CO2, 37° C.) for 24 hours.
(§4) A control group was a cell group which was not treated, and as a negative control group, a cell group treated with only LPS was used.
(§5) After completion of culture, a medium of each well was collected (at 4° C., 12,000 rpm for 10 minutes) and centrifuged, a supernatant was taken, and the concentration of inflammatory cytokine (IL-6, Il-1B) in the medium was quantified using an ELISA kit (R&D system, BD).
A general note: ELISA stands for enzyme-linked immunosorbent assay.

For experiment [8], the system named is Il-1B. The experiment is described as follows: Anti-inflammatory efficacy: IL-1B secretion in LPS-treated RAW 264.7 cells (ELISA). The class given is cell-based, mouse. The note with it: RAW 264.7 cells, 5, 10, 20, 40 ug/mL plus 1 ug/ml LPS, 24 hours, versus LPS only. As for the experimental part:
as §1, §2, §3, §4, §5

[9] abbreviates: ATCC9689, C. difficile ATCC 9689, read-out: MIC.
The mark [10] stands for this setting: ATCC17858, C. difficile ATCC 17858, read-out: MIC.
Setting [11] is: ATCC43255, C. difficile ATCC 43255, read-out: MIC.
Setting [12] is: ATCC51695, C. difficile ATCC 51695, read-out: MIC.
[13] abbreviates: ATCCBAA1871, C. difficile ATCC BAA-1871, read-out: MIC.
Setting [14] is: C. difficile Clinical isolate #1, read-out: MIC.
Setting [15] is: C. difficile Clinical isolate #2, read-out: MIC.
Setting [16] is: Mycobacterium avium ATCC 700898, read-out: MIC50.
The mark [17] stands for this setting: Mycobacterium intracellulare ATCC 13950, read-out: MIC50.

≈ marks a conversion by molar mass, not a printed value. Where two headings read alike, the source gives them in different places.

Regarding `CN[C@H](CC(C)C)C(=O)N[C@H]1C(=O)N[C@@H](CC(N)=O)C(=O)N[C@H]2C(=O)N[C@H]3C(=O)N[C@H](C(=O)N[C@H](C(=O)O)c4cc(O)cc(O)c4-c4cc3ccc4O)[C@H](O)c3ccc(c(Cl)c3)Oc3cc2cc(c3O[C@@H]2O[C@H](CO)[C@@H](O)[C@H](O)[C@H]2O[C@H]2C[C@](C)(N)[C@H](O)[C@H](C)O2)Oc2ccc(cc2Cl)[C@H]1O` [VAN, Vancomycin], the MIC was 2 µg/mL (≈ 1.38 µM) in experiment [1] (setting [9]); 1 µg/mL (≈ 0.69 µM) in experiment [1] (setting [10]); 1 µg/mL (≈ 0.69 µM) in experiment [1] (setting [11]); 2 µg/mL (≈ 1.38 µM) in experiment [1] (setting [12]); 1 µg/mL (≈ 0.69 µM) in experiment [1] (setting [13]); 4 µg/mL (≈ 2.76 µM) in experiment [1] (setting [14]). Besides, in experiment [1] (setting [15]), the MIC came out at 1 µg/mL (≈ 0.69 µM).
With `C/C=C(\NC(=O)c1csc(-c2csc(-c3ccc4c(n3)-c3csc(n3)[C@H]([C@@H](C)O)NC(=O)c3csc(n3)[C@H](C(C)C)NC(=O)c3csc(n3)/C(=C/C)NC(=O)[C@H]([C@@H](C)O)NC(=O)c3csc-4n3)n2)n1)C(=O)NCC(C)=O` [Micrococcin P2], the MIC50 in experiment [2] (H37RV, M. tuberculosis H37Rv) turned out to be 0.089 µM (≈ 0.102 µg/mL); in experiment [2] (Pan-susceptible isolate #2 (Pan-S2)), 0.199 µM (≈ 0.227 µg/mL); in experiment [2] (Pan-susceptible isolate #4 (Pan-S4)), 0.356 µM (≈ 0.407 µg/mL); in experiment [2] (Pan-susceptible isolate #6 (Pan-S6)) it was 0.354 µM (≈ 0.404 µg/mL); in experiment [2] (Pan-susceptible isolate #7 (Pan-S7)), 0.208 µM (≈ 0.238 µg/mL); in experiment [3] (Mycobacterium avium), 0.028 µM (≈ 0.032 µg/mL). Further, the MIC50 in experiment [4] (Mycobacterium intracellulare) was 0.033 µM (≈ 0.0377 µg/mL); in experiment [5], 0.654 µM (≈ 0.747 µg/mL). Further, the MIC in experiment [1] (setting [9]) is 0.5 µg/mL (≈ 0.438 µM); in experiment [1] (setting [10]), 1 µg/mL (≈ 0.875 µM); in experiment [1] (setting [11]), 2 µg/mL (≈ 1.75 µM); in experiment [1] (ATCC51695), 1 µg/mL (≈ 0.875 µM); in experiment [1] (setting [13]) it was 1 µg/mL (≈ 0.875 µM); in experiment [1] (setting [14]), 1 µg/mL (≈ 0.875 µM). In addition, the MIC in experiment [1] (setting [15]) came out at 1 µg/mL (≈ 0.875 µM). Further, the “death by C. difficile recurrence after drug administration” value in experiment [6] (followed about 2 weeks) is “no death individual occurred by C. difficile recurrence”. Besides, the survival rate in experiment [6] (survival followed about 2 weeks) is listed as 100%. Also, in experiment [7], the “secretion amount of IL-6” value was “significantly decreased”. The “secretion amount of IL-1B” value in experiment [8] is listed as “significantly decreased”.
As to `Cc1ncc([N+](=O)[O-])n1CCO` [MDZ, Metronidazole], the minimal inhibitory concentration (MIC) worked out at 1 µg/mL (≈ 5.84 µM) in experiment [1] (setting [9]); 1 µg/mL (≈ 5.84 µM) in experiment [1] (setting [10]); 2 µg/mL (≈ 11.7 µM) in experiment [1] (setting [11]); 2 µg/mL (≈ 11.7 µM) in experiment [1] (setting [12]); 2 µg/mL (≈ 11.7 µM) in experiment [1] (setting [13]); 1 µg/mL (≈ 5.84 µM) in experiment [1] (setting [14]). Also, the MIC in experiment [1] (setting [15]) is 2 µg/mL (≈ 11.7 µM).
For `CC[C@H]1OC(=O)[C@H](C)[C@@H](O[C@H]2C[C@@](C)(OC)[C@@H](O)[C@H](C)O2)[C@H](C)[C@@H](O[C@@H]2O[C@H](C)C[C@H](N(C)C)[C@H]2O)[C@](C)(OC)C[C@@H](C)C(=O)[C@H](C)[C@@H](O)[C@]1(C)O` [CLR, Clarithromycin], the MIC50 in experiment [3] (setting [16]) worked out at 0.076 µM (≈ 0.0568 µg/mL); in experiment [4] (setting [17]), 0.143 µM (≈ 0.107 µg/mL).
Regarding `CO[C@H]1/C=C/O[C@@]2(C)Oc3c(C)c(O)c4c(O)c(c(/C=N/N5CCN(C)CC5)c(O)c4c3C2=O)NC(=O)/C(C)=C\C=C\[C@H](C)[C@H](O)[C@@H](C)[C@@H](O)[C@@H](C)[C@H](OC(C)=O)[C@@H]1C` [RIF, Rifampicin], the values for the MIC50 in experiment [3] (setting [16]) and in experiment [4] (setting [17]) were 6.6 µM (≈ 5.43 µg/mL) and 0.38 µM (≈ 0.313 µg/mL), respectively.
As for `COc1c(N2C[C@@H]3CCCN[C@@H]3C2)c(F)cc2c(=O)c(C(=O)O)cn(C3CC3)c12` [MXF, Moxifloxacin], the MIC in experiment [1] (setting [9]) was determined as 1 µg/mL (≈ 2.49 µM); in experiment [1] (setting [10]) it was 2 µg/mL (≈ 4.98 µM); in experiment [1] (setting [11]), 2 µg/mL (≈ 4.98 µM); in experiment [1] (setting [12]), 2 µg/mL (≈ 4.98 µM); in experiment [1] (setting [13]) it was 32 µg/mL (≈ 79.7 µM); in experiment [1] (setting [14]) it was 32 µg/mL (≈ 79.7 µM). Further, the MIC in experiment [1] (setting [15]) was found to be 2 µg/mL (≈ 4.98 µM).

For orientation: MIC means the lowest concentration that inhibits growth of the organism. Usually MIC50 stands for an inhibitory concentration at the 50% level, which refers to growth in some studies and to a panel of isolates in others.

For the origin of these results see patent publication US20240277800A1, “PHARMACEUTICAL COMPOSITION COMPRISING MACROCOSINE COMPOUND AND METHOD FOR PREPARING MACROCOSINE COMPOUND” (priority 2021, published 2024).
